Data as given in PMC9857891, “Optimization and Molecular Mechanism of Novel α-Glucosidase Inhibitory Peptides Derived from Camellia Seed Cake through Enzymatic Hydrolysis” (Foods, 2023).
Where a SMILES comes first, the peptide text is derived from it. Where no end group is shown, it is not given here.

Assays:
[1] = molecular target: α-glucosidase; assay: α-glucosidase inhibition assay in vitro (pNPG substrate); type: biochemical; details: synthesized peptides; read-out: α-glucosidase Inhibitory Activity (IC50)
Experimental: (§1) The α-glucosidase inhibition activity was performed as described in the literature. In a 96-well enzyme plate, 40 μL of PBS buffer solution (pH 6.86, 0.1 M), 40 μL of sample solution, and 80 μL of α-glucosidase solution (0.2 U/mL) were added, mixed well, and reacted at 37 °C for 15 min. Next, 80 μL of 2.5 mM p-nitrophenyl-α-D-glucopyranoside (pNPG, 0.1 M, pH 6.8 in PBS) was added, mixed well, and reacted at 37 °C for 20 min. Finally, 150 μL of 0.2 M Na2CO3 solution was added to stop the reaction, which was then measured for absorbance values at 405 nm A1. Data were collected for three parallel experiments. (1) α-glucosidase inhibitory activity (%) = A0− (A 1− A2)/ A0 × 100% where A0 is the absorbance of an equal amount of PBS buffer in place of the sample; A2 is the absorbance of an equal amount of PBS buffer in place of the α-glucosidase solution and pNPG solution.

[2] = tested on: α-glucosidase; assay: Simulated gastrointestinal digestion in vitro, residual α-glucosidase inhibitory activity; type: in vitro ADME; details: 37 °C; for loss of α-glucosidase inhibitory activity after SGID: SGF 120 min then SIF 120 min; for loss of α-glucosidase inhibitory activity after simulated gastric digestion (SGD): SGF, 120 min
Experimental: as §1
The method of simulated gastrointestinal digestion (SGID) follows the previous method with slight modifications. Simulated gastric fluid (SGFs) and simulated intestinal fluid (SIFs) are both purchased from Shanghai Yuanye Biotechnology Co., Ltd., as previously mentioned. In brief, the synthesized peptide LLVLYYEY and LLLLPSYSEF was pre-dissolved to 4 mg/mL in pure water. LLVLYYEY and LLLLPSYSEF aqueous solution was mixed with SGFs (1:1, v/v) and digested at 37 °C for 120 min. SIFs (1:1, v/v) was then mixed and the mixture was incubated for 120 min. After 120 min of incubation, the pH was adjusted to 7 by NaOH (1M) to stop the simulated gastric digestion (SGD) phase; after 240 min of incubation the simulated intestinal digestion (SID) phase was stopped by a boiling water bath for 10 min.

Compound | IC50 [1] [mM] | loss of α-glucosidase inhibitory activity after SGID [2] | loss of α-glucosidase inhibitory activity after simulated gastric digestion (SGD) [2]
C[C@H](N)C(=O)N[C@H](C(=O)N[C@@H](CC(N)=O)C(=O)N1CCC[C@H]1C(=O)N1CCC[C@H]1C(=O)N[C@@H](CS)C(=O)N[C@@H](CS)C(=O)N[C@@H](CCC(N)=O)C(=O)N1CCC[C@H]1C(=O)O)[C@@H](C)O [ATNPPCCQP, Ala-Thr-Asn-Pro-Pro-Cys-Cys-Gln-Pro] (H-ATNPPCCQP-OH) | > 10 |  | 
CC(C)C[C@H](N)C(=O)N[C@@H](CS)C(=O)N[C@@H](CC(=O)O)C(=O)N[C@@H](CCC(N)=O)C(=O)N[C@@H](CS)C(=O)N1CCC[C@H]1C(=O)N1CCC[C@H]1C(=O)N[C@@H](Cc1c[nH]cn1)C(=O)N[C@@H](C)C(=O)O [LCDQCPPHA, Leu-Cys-Asp-Gln-Cys-Pro-Pro-His-Ala] (H-LCDQCPPHA-OH) | 4.32 |  | 
LLLLPSYSEF [LLLLPSYSEF, Leu-Leu-Leu-Leu-Pro-Ser-Tyr-Ser-Glu-Phe] |  | significant loss of activity | essentially no loss
LLVLYYEY [LLVLYYEY, Leu-Leu-Val-Leu-Tyr-Tyr-Glu-Tyr] |  | significant loss of activity | essentially no loss
